In ChEMBL document CHEMBL2074268, “Cloning of mouse prostaglandin transporter PGT cDNA: species-specific substrate affinities” (Am J Physiol, 1999):

Assays:
Type in all cases: functional, cell-based
[1] = target: Solute carrier organic anion transporter family member 2A1 (Rattus norvegicus, UniProt Q00910); test: (§1) TP_TRANSPORTER: inhibition of PGE2 uptake in PGT-expressing HeLa cells
[2] = target: Solute carrier organic anion transporter family member 2A1 (Mus musculus, UniProt Q9EPT5); test: as §1
Chain of Solute carrier organic anion transporter family member 2A1 (Mus musculus, UniProt Q9EPT5) (Q9EPT5 whole entry): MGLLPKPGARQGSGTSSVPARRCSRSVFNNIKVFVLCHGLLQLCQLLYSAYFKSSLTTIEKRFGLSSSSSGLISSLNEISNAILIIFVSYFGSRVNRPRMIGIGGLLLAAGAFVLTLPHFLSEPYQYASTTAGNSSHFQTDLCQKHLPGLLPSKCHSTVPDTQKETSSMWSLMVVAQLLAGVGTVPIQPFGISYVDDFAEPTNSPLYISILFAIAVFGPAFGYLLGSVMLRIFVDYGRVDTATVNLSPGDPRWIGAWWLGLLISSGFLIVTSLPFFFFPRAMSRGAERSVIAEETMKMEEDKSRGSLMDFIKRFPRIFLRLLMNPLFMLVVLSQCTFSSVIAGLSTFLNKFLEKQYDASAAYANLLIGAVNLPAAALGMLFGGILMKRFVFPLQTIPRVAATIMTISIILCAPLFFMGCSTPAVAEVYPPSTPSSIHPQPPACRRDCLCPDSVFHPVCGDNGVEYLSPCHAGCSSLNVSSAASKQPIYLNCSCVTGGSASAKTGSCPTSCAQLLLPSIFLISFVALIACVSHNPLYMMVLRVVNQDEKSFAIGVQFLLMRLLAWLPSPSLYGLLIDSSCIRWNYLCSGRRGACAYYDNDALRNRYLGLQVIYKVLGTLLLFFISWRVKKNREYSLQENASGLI

[3] = target: Solute carrier organic anion transporter family member 2A1 (Homo sapiens, UniProt Q92959); test: as §1

| SMILES | Ki [1] | Ki [2] | Ki [3] |
| --- | --- | --- | --- |
| CCCCC[C@H](O)/C=C/[C@@H]1[C@@H](C/C=C\CCCC(=O)O)[C@@H](O)C[C@H]1O [DINOPROST] | 45 nM | 104 nM | 23 nM |
| CCCCC[C@H](O)/C=C/[C@H]1C(=O)C[C@H](O)[C@@H]1C/C=C\CCCC(=O)O [PROSTAGLANDIN D2] | 45 nM | 98 nM | 38 nM |
